Laboratory results as given in patent US20090304606A1, “Method for removing debris from tooth and bone surface using irrigation solution” (priority 2006, published 2009).

Experiment: Effect of surfactants on stability of citric acid solutions, accelerated aging on a hot plate
Assay type: physicochemical
Protocol: In the following example, the stability of solutions containing an acid component and different surfactants (surfactants) was evaluated. Solutions of 4.4% citric acid and 0.5% surfactant were prepared. The solutions were placed in clear glass bottles, and the bottles were placed on a hot plate to approximate accelerated aging conditions. The temperature of the liquids in the bottle was about 60° C., although some variations occurred depending upon the position of the bottle.

Sequence | Observations (stability of solution)
POLOXAMER 407 | Yellow precipitate formed at bottom
POLOXAMER 237 | Slightly cloudy after 64 days.
